Data on 28 molecules can be found in US8507483B2, “1H-pyrimidin-2-one derivatives, preparation thereof and pharmaceutical use thereof as inhibitors of AKT (PKB) phosphorylation” (Sanofi, priority 2009, dated 2013).

SMILES strings stand for the structures.

The term IC50 denotes the point on the concentration scale where inhibition reaches its midpoint.

This test deals with AKT protein phosphorylated on serine 473 (P-AKT-S473) in PC3 human prostate carcinoma cells. Put plainly: pAKT expression in PC3 cells measured by MSD Multi-spot Biomarker Detection (Test B). Format: cell-based. As to conditions: PC-3, inhibition of AKT Ser473 phosphorylation, 1 to 2 h incubation, MSD sandwich immunoassay, absolute IC50, mean of two experiments. The method, then:
The inhibitory activity of the molecules on AKT phosphorylation is measured either by western blotting using the technique described below, or by the MSD Multi-spot Biomarker detection technique from Meso Scale Discovery also described below.
Where appropriate, the activity of the products is translated into approximately IC50, obtained from a dose-response curve of various concentrations tested and representing the dose giving 50% of specific inhibition (absolute IC50). Two independent experiments make it possible to calculate the mean of the IC50s. Study of pAKT expression in PC3 human prostate carcinoma cells measured by the MSD Multi-spot Biomarker Detection technique from Meso Scale Discovery (Test B): This test is based on measuring the expression of the AKT protein phosphorylated on serine 473 (P-AKT-S473), in the PC3 human prostate carcinoma line, by means of the technique based on a sandwich immunoassay using the MSD Multi-spot Biomarker Detection kit from Meso Scale Discovery: phospho-Akt (Ser473) whole cell lysate kit (#K151 CAD) or phospho-Akt (Ser473)/Total Akt whole cell lysate kit (#K151OOD).
The primary antibody specific for P-AKT-5473 (Kit #K151 CAD) is coated onto an electrode in each well of the 96-well plates of the MSD kit: after the addition of a protein lysate to each well, the signal is visualised by adding a secondary detection antibody labelled with an electrochemoluminescent compound. The procedure followed is that described in the kit.
On day 1, the PC3 cells are seeded into 96-well plates (TPP, #92096) at the concentration of 35 000 cells/well in 200 μl of DMEM medium (DMEM Gibco #11960-044) containing 10% of foetal calf serum (FCS Gibco, #10500-056) and 1% glutamine (L-Glu Gibco #25030-024), and incubated at 37° C., 5% CO2, overnight.
On day 2, the cells are incubated in the presence or absence of the test products for 1 to 2 h at 37° C. in the presence of 5% of CO2. The molecules, diluted in dimethyl sulphoxide (DMSO Sigma #D2650), are added from a 20-times concentrated stock solution, the final percentage of DMSO being 0.1%. The molecules are tested either at a single concentration of less than or equal to 10 μM, or at increasing concentrations in a range that can extend from less than 1 nM to 10 μM.
After this incubation, the cells are lysed for the preparation of the proteins. For this, after the culture medium has been drawn off, […] of complete Tris Lysis Buffer of the MSD kit containing the protease and phosphatase inhibitor solutions are added to the wells and the cells are lysed for 1 h at 4° C. with shaking At this stage, the plates containing the lysates can be frozen at −20° C. or at −80° C.
The wells of the 96-well plates of the MSD kit are saturated for 1 h at ambient temperature with the blocking solution of the MSD kit. Four washes are carried out with 150 μl of Tris Wash Buffer of the MSD kit. The lysates previously prepared are transferred into the 96-well multi-spot plates of the MSD kit and incubated for 1 h at ambient temperature, with shaking Four washes are carried out with 150 μl of Tris Wash Buffer of the MSD kit. 25 μl of the MSD sulpho-tag detection antibody solution are added to the wells and incubated for 1 h at ambient temperature, with shaking Four washes are carried out with 150 μl of Tris Wash Buffer of the MSD kit. 150 μl of Read Buffer of the MSD kit are added to the wells and the plates are read immediately on the 512400 instrument from Meso Scale Discovery.
The instrument measures a signal for each well. Wells without cells and containing the lysis buffer serve to determine the background noise that will be subtracted from all the measurements (min). The wells containing cells in the absence of product and in the presence of 0.1% DMSO are considered to be the 100% signal (max). The percentage inhibition is calculated for each concentration of test product according to the following formula: (1−((test−min)/(max−min)))×100. […]
For `COc1ccc2nc(Cc3nc(N4CCOCC4)cc(=O)[nH]3)oc2c1` [Example 21, 2-[(6-methoxy-1,3-benzoxazol-2-yl)methyl]-6-(morpholin-4-yl)pyrimidin-4(3H)-one], half-maximal inhibition (IC50) required 18 nM.

In turn, `O=c1cc(N2CCOCC2)nc(Cc2nc3c(Br)cc(F)cc3[nH]2)[nH]1` [Example 35, 2-[(4-bromo-6-fluoro-1H-benzimidazol-2-yl)methyl]-6-(morpholin-4-yl)pyrimidin-4(3H)-one] registered an IC50 of 115 nM.

`COc1ccc2nc(Cc3nc(N4CCOCC4)cc(=O)[nH]3)[nH]c2c1` [Example 4, 2-[(6-methoxy-1H-benzimidazol-2-yl)methyl]-6-(morpholin-4-yl)pyrimidin-4(3H)-one]: the IC50 worked out at 475 nM.

With `Cc1ccc2nc(Cc3nc(N4CCOCC4)cc(=O)[nH]3)[nH]c2c1` [Example 24, 2-[(6-methyl-1H-benzimidazol-2-yl)methyl]-6-(morpholin-4 yl)pyrimidin-4(3H)-one], the IC50 came to 140 nM.

As for `O=c1cc(N2CCOCC2)nc(Cc2nc3ccc(Br)cc3o2)[nH]1` [Example 9, 2-[(6-bromo-1,3-benzoxazol-2-yl)methyl]-6-(morpholin-4-yl)pyrimidin-4(3H)-one], the 50% inhibitory concentration (IC50) was found to be 175 nM.

In turn, `O=c1cc(N2CCOCC2)nc(Cc2nc3ccccc3n2C2CCCCC2)[nH]1` [Example 33, 2-[(1-cyclohexyl-1H-benzimidazol-2-yl)methyl]-6-(morpholin-4-yl)pyrimidin-4(3H)-one] returned a 50% inhibitory concentration (IC50) of 142 nM.

Turning to `O=c1cc(N2CCOCC2)nc(Cc2nc3c(Cl)cc(C(F)(F)F)cc3[nH]2)[nH]1` [Example 25, 2-{[4-chloro-6-(trifluoromethyl)-1H-benzimidazol-2-yl]methyl}-6-(morpholin-4-yl)pyrimidin-4(3H)-one], half-maximal inhibition (IC50) was put at 3000 nM.

`Cn1c(Cc2nc(N3CCOCC3)cc(=O)[nH]2)nc2cccc(Br)c21` [Example 41, 2-[(7-Bromo-1-methyl-1H-benzimidazol-2-yl)methyl]-6-(morpholin-4-yl)pyrimidin-4(3H)-one] gave an IC50 of 32 nM.

With `N#CCn1c(Cc2nc(N3CCOCC3)cc(=O)[nH]2)nc2ccccc21` [Example 30, (2-{[4-(morpholin-4-yl)-6-oxo-1,6-dihydropyrimidin-2-yl]methyl}-1H-benzimidazol-1-yl)acetonitrile], the midpoint of inhibition, the IC50, lay at 1340 nM.

In the case of `Cn1c(Cc2nc(N3CCOCC3)cc(=O)[nH]2)nc2cc(Cl)c(Cl)cc21` [Example 38, 2-[(5,6-Dichloro-1-methyl-1H-benzimidazol-2-yl)methyl]-6-(morpholin-4-yl)pyrimidin-4(3H)-one], the half-inhibitory concentration (IC50) was determined as 65 nM.

`Cc1ccc2nc(Cc3nc(N4CCOCC4)cc(=O)[nH]3)oc2c1` [Example 8, 2-[(6-methyl-1,3-benzoxazol-2-yl)methyl]-6-(morpholin-4-yl)pyrimidin-4(3H)one] showed an IC50 of 143 nM.

Molecule `CCn1c(Cc2nc(N3CCOCC3)cc(=O)[nH]2)nc2ccccc21` [Example 15, 2-[(1-ethyl-1H-benzimidazol-2-yl)methyl]-6-(morpholin-4-yl)pyrimidin-4(3H)-one] displayed a 50% inhibitory concentration (IC50) of 26 nM.

`Cc1cc2nc(Cc3nc(N4CCOCC4)cc(=O)[nH]3)[nH]c2cc1Cl` [Example 29, 2-[(5-chloro-6-methyl-1H-benzimidazol-2-yl)methyl]-6-(morpholin-4-yl)pyrimidin-4(3H)-one] showed a concentration for half-maximal inhibition (IC50) of 506 nM.

For `Cn1c(Cc2nc(N3CCOCC3)cc(=O)[nH]2)nc2cc(F)c(F)c(F)c21` [Example 39, 6-(Morpholin-4-yl)-2-[(5,6,7-trifluoro-1-methyl-1H-benzimidazol-2-yl)methyl]pyrimidin-4(3H)-one], the half-inhibitory concentration (IC50) was 100 nM.

`O=c1cc(N2CCOCC2)nc(Cc2nc3cc(F)c(Cl)cc3[nH]2)[nH]1` [Example 27, 2-[(5-chloro-6-fluoro-1H-benzimidazol-2-yl)methyl]-6-(morpholin-4-yl)pyrimidin-4(3H)-one] gave a half-maximal inhibitory concentration (IC50) of 256 nM.

For the molecule `O=c1cc(N2CCOCC2)nc(Cc2nc3ccccc3n2Cc2ccccc2)[nH]1` [Example 14, 2-[(1-benzyl-1H-benzimidazol-2-yl)methyl]-6-(morpholin-4-yl)pyrimidin-4(3H)-one], the IC50 worked out at 105 nM.

In turn, `O=c1cc(N2CCOCC2)nc(Cc2nc3cc(F)c(F)c(F)c3[nH]2)[nH]1` [Example 34, 6-(morphlolin-4-yl)-2-[(5,6,7-trifluoro-1H-benzimidazol-2-yl)methyl]pyrimidin-4(3H)-one] registered a 50% inhibitory concentration (IC50) of 208 nM.

On to `Cn1c(Cc2nc(N3CCOCC3)cc(=O)[nH]2)nc2cc(F)ccc21` [Example 11, 2-[(5-fluoro-1-methyl-1H-benzimidazol-2-yl)methyl]-6-(morpholin-4-yl)pyrimidin-4(3H)-one], for which inhibition was half-maximal at 16 nM (IC50).

As for `CC(c1ccccc1)n1c(Cc2nc(N3CCOCC3)cc(=O)[nH]2)nc2cc(Cl)ccc21` (stereo not shown) [Example 32, 2-{[5-chloro-1-(1-phenylethyl)-1H-benzimidazol-2-yl]methyl}-6-(morpholin-4-yl)pyrimidine-4(3H)-one], the IC50 amounted to 206 nM.

Molecule `O=c1cc(N2CCOCC2)nc(Cc2nc3cc(Cl)c(Cl)cc3[nH]2)[nH]1` [Example 23, 2-[(5,6-dichloro-1H-benzimidazol-2-yl)methyl]-6-(morpholin-4-yl)pyrimidin-4(3H)-one] had an IC50 of 193 nM.

In turn, `O=c1cc(N2CCOCC2)nc(Cc2nc3c(F)c(F)ccc3[nH]2)[nH]1` [Example 28, 2-[(6,7-difluoro-1H-benzimidazol-2-yl)methyl]-6-(morpholin-4-yl)pyrimidine-4(3H)-one] showed a half-inhibitory concentration (IC50) of 585 nM.

On to `O=c1cc(N2CCOCC2)nc(Cc2nc3ccc(F)c(F)c3o2)[nH]1` [Example 22, 2-[(6,7-difluoro-1,3-benzoxazol-2-yl)methyl]-6-(morpholin-4-yl)pyrimidin-4(3H)-one], for which the midpoint of inhibition, the IC50, lay at 28 nM.

In turn, `O=c1cc(N2CCOCC2)nc(Cc2nc3ccc4ccccc4c3o2)[nH]1` [Example 20, 6-(morpholin-4-yl)-2-(naphtho[2,1-d][1,3]oxazol-2-ylmethyl)pyrimidin-4(3H)-one] came in with an IC50 of 1000 nM.

As to `O=c1cc(N2CCOCC2)nc(Cc2nc3ccc(Cl)cc3[nH]2)[nH]1` [Example 17, 2-[(6-chloro-1H-benzimidazol-2-yl)methyl]-6-(morpholin-4-yl)pyrimidin-4(3H)-one], the midpoint of inhibition, the IC50, lay at 63 nM.

`O=c1cc(N2CCOCC2)nc(Cc2nc3ccccc3n2-c2ccccc2)[nH]1` [Example 13, 6-(morpholin-4-yl)-2-[(1-phenyl-1H-benzimidazol-2-yl)methyl]pyrimidin-4(3H)-one] yielded a half-inhibitory concentration (IC50) of 8 nM.

For the molecule `O=c1cc(N2CCOCC2)nc(Cc2nc3c(O)cccc3o2)[nH]1` [Example 40, 2-[(4-hydroxy-1,3-benzoxazol-2-yl)methyl]-6-(morpholin-4-yl)pyrimidin-4(3H)-one], the IC50 was determined as 44 nM.

`O=c1cc(N2CCOCC2)nc(Cc2nc3cc(F)c(F)cc3o2)[nH]1` [Example 16, 2-[(5,6-difluoro-1,3-benzoxazol-2-yl)methyl]-6-(morpholin-4-yl)pyrimidin-4(3H)-one] registered a half-inhibitory concentration (IC50) of 187 nM.

In turn, `Cn1c(Cc2nc(N3CCOCC3)cc(=O)[nH]2)nc2ccc(Br)cc21` [Example 36, 2-[(6-Bromo-1-methyl-1H-benzimidazol-2-yl)methyl]-6-(morpholin-4-yl)pyrimidin-4(3H)-one] came in with a half-maximal inhibitory concentration (IC50) of 28 nM.
